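These data come from cells grown in 96-well plates and exposed to compound for 48 hours at five concentrations. TGI is the concentration that stops growth completely.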
Tests used:
Assay in all cases: NCI anticancer screen, dose series, 48 h
786-0 renal = tested on: 786-0 renal
A498 renal = tested on: A498 renal
A549 NSCLC = tested on: A549 NSCLC
ACHN renal = tested on: ACHN renal
CAKI-1 renal = tested on: CAKI-1 renal
CCRF-CEM leukemia = tested on: CCRF-CEM leukemia
COLO 205 colon = tested on: COLO 205 colon
DLD-1 colon = tested on: DLD-1 colon
DMS 114 small cell lung = tested on: DMS 114 small cell lung
DMS 273 small cell lung = tested on: DMS 273 small cell lung
EKVX NSCLC = tested on: EKVX NSCLC
HCC-2998 colon = tested on: HCC-2998 colon
HCT-116 colon = tested on: HCT-116 colon
HCT-15 colon = tested on: HCT-15 colon
HL-60(TB) leukemia = tested on: HL-60(TB) leukemia
HOP-18 NSCLC = tested on: HOP-18 NSCLC
HOP-62 NSCLC = tested on: HOP-62 NSCLC
HOP-92 NSCLC = tested on: HOP-92 NSCLC
IGROV1 ovarian = tested on: IGROV1 ovarian
K-562 leukemia = tested on: K-562 leukemia
KM12 colon = tested on: KM12 colon
KM20L2 colon = tested on: KM20L2 colon
LOX IMVI melanoma = tested on: LOX IMVI melanoma
LXFL 529 NSCLC = tested on: LXFL 529 NSCLC
M14 melanoma = tested on: M14 melanoma
M19-MEL melanoma = tested on: M19-MEL melanoma
MALME-3M melanoma = tested on: MALME-3M melanoma
MOLT-4 leukemia = tested on: MOLT-4 leukemia
NCI-H226 lung = tested on: NCI-H226 lung
NCI-H23 lung = tested on: NCI-H23 lung
NCI-H460 lung = tested on: NCI-H460 lung
NCI-H522 lung = tested on: NCI-H522 lung
OVCAR-3 ovarian = tested on: OVCAR-3 ovarian
OVCAR-4 ovarian = tested on: OVCAR-4 ovarian
OVCAR-5 ovarian = tested on: OVCAR-5 ovarian
OVCAR-8 ovarian = tested on: OVCAR-8 ovarian
RPMI-8226 leukemia = tested on: RPMI-8226 leukemia
SF-268 CNS = tested on: SF-268 CNS
SF-539 CNS = tested on: SF-539 CNS
SK-MEL-2 melanoma = tested on: SK-MEL-2 melanoma
SK-MEL-5 melanoma = tested on: SK-MEL-5 melanoma
SK-OV-3 ovarian = tested on: SK-OV-3 ovarian
SN12C renal = tested on: SN12C renal
SNB-19 CNS = tested on: SNB-19 CNS
SNB-75 CNS = tested on: SNB-75 CNS
SR leukemia = tested on: SR leukemia
SW-620 colon = tested on: SW-620 colon
U251 CNS = tested on: U251 CNS
UACC-257 melanoma = tested on: UACC-257 melanoma
UACC-62 melanoma = tested on: UACC-62 melanoma
UO-31 renal = tested on: UO-31 renal
XF 498 CNS = tested on: XF 498 CNS
HT29 colon = tested on: HT29 colon
RXF 393 renal = tested on: RXF 393 renal
SF-295 CNS = tested on: SF-295 CNS
SK-MEL-28 melanoma = tested on: SK-MEL-28 melanoma
SNB-78 CNS = tested on: SNB-78 CNS
TK-10 renal = tested on: TK-10 renal

Measured: TGI

CC(=O)Nc1ccc(C(=O)NN2C(=O)C(Cl)C2c2cc(Br)cc(Br)c2O)cc1 (centres undefined)
> 100 µM: 786-0 renal | A498 renal | A549 NSCLC | ACHN renal | CAKI-1 renal | CCRF-CEM leukemia | COLO 205 colon | DLD-1 colon | DMS 114 small cell lung | DMS 273 small cell lung | EKVX NSCLC | HCC-2998 colon | HCT-116 colon | HCT-15 colon | HL-60(TB) leukemia | HOP-18 NSCLC | HOP-62 NSCLC | HOP-92 NSCLC | IGROV1 ovarian | K-562 leukemia | KM12 colon | KM20L2 colon | LOX IMVI melanoma | LXFL 529 NSCLC | M14 melanoma | M19-MEL melanoma | MALME-3M melanoma | MOLT-4 leukemia | NCI-H226 lung | NCI-H23 lung | NCI-H460 lung | NCI-H522 lung | OVCAR-3 ovarian | OVCAR-4 ovarian | OVCAR-5 ovarian | OVCAR-8 ovarian | RPMI-8226 leukemia | SF-268 CNS | SF-539 CNS | SK-MEL-2 melanoma | SK-MEL-5 melanoma | SK-OV-3 ovarian | SN12C renal | SNB-19 CNS | SNB-75 CNS | SR leukemia | SW-620 colon | U251 CNS | UACC-257 melanoma | UACC-62 melanoma | UO-31 renal | XF 498 CNS

CCCC(=O)Nc1ccc(O)c2c1C1CCCCCC21 (centres undefined)
> 100 µM: 786-0 renal | A549 NSCLC | ACHN renal | CCRF-CEM leukemia | COLO 205 colon | DMS 114 small cell lung | DMS 273 small cell lung | EKVX NSCLC | HCT-116 colon | HCT-15 colon | HL-60(TB) leukemia | HOP-18 NSCLC | HOP-62 NSCLC | HT29 colon | K-562 leukemia | KM12 colon | KM20L2 colon | LOX IMVI melanoma | LXFL 529 NSCLC | M14 melanoma | M19-MEL melanoma | MALME-3M melanoma | MOLT-4 leukemia | NCI-H226 lung | NCI-H23 lung | NCI-H460 lung | NCI-H522 lung | OVCAR-4 ovarian | OVCAR-8 ovarian | RPMI-8226 leukemia | RXF 393 renal | SF-268 CNS | SF-295 CNS | SK-MEL-2 melanoma | SK-MEL-28 melanoma | SK-MEL-5 melanoma | SK-OV-3 ovarian | SN12C renal | SNB-19 CNS | SNB-75 CNS | SNB-78 CNS | SR leukemia | SW-620 colon | TK-10 renal | U251 CNS | UACC-257 melanoma | UACC-62 melanoma | UO-31 renal | XF 498 CNS

COc1ccc(CNc2cnc3ccc(N)cc3n2)cc1OC
> 100 µM: 786-0 renal | A549 NSCLC | ACHN renal | CAKI-1 renal | CCRF-CEM leukemia | COLO 205 colon | DLD-1 colon | DMS 114 small cell lung | DMS 273 small cell lung | EKVX NSCLC | HCC-2998 colon | HCT-116 colon | HCT-15 colon | HL-60(TB) leukemia | HOP-18 NSCLC | HT29 colon | K-562 leukemia | KM12 colon | LOX IMVI melanoma | M14 melanoma | M19-MEL melanoma | MALME-3M melanoma | MOLT-4 leukemia | NCI-H226 lung | NCI-H23 lung | NCI-H460 lung | NCI-H522 lung | OVCAR-3 ovarian | OVCAR-4 ovarian | OVCAR-5 ovarian | OVCAR-8 ovarian | RPMI-8226 leukemia | SF-268 CNS | SF-295 CNS | SF-539 CNS | SK-MEL-2 melanoma | SK-MEL-28 melanoma | SK-MEL-5 melanoma | SN12C renal | SNB-19 CNS | SNB-75 CNS | SNB-78 CNS | SR leukemia | SW-620 colon | TK-10 renal | UACC-257 melanoma | UO-31 renal | XF 498 CNS
